The values below come from publication PMC9841531, “Indole Derivatives as New Structural Class of Potent and Antiproliferative Inhibitors of Monocarboxylate Transporter 1 (MCT1; SLC16A1)” (Journal of Medicinal Chemistry, 2022).

Each structure is given as a SMILES string.

In series [1] the target is T1, MCT1 (Homo sapiens, UniProt P53985).
T1 construct: MCT1-expressing A-549 cells[14],[15] were exposed to the MCT1 substrate 3-BP, which becomes influxed by MCT1; endogenous in cells; host or cells: A-549 lung cancer cells (from NCCS, Pune)
T1 sequence (P53985 1-500): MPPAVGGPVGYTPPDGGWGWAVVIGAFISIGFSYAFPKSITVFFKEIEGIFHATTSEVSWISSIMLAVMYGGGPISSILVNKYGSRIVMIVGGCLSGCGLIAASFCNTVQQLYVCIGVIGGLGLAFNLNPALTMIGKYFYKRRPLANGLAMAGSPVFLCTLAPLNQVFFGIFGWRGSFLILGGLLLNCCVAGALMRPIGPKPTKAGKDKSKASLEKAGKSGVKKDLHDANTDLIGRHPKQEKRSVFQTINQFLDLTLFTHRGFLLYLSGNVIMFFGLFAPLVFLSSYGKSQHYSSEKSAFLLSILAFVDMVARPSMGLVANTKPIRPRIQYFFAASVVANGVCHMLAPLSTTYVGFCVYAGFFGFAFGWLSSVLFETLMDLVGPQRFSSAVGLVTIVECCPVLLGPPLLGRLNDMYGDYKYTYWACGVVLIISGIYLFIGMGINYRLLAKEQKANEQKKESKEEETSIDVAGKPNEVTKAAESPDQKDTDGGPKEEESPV
T1 sequence (P35613 140-385 partner limits assumed): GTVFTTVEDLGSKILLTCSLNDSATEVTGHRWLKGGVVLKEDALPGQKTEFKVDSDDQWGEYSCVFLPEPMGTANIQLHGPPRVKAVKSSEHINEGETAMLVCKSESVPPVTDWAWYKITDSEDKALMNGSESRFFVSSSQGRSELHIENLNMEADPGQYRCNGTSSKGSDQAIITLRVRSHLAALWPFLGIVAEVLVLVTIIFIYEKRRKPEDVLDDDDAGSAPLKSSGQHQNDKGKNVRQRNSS
Description: functional 3-BP cell viability assay (MCT1 transport inhibition). Format: cell-based. To be noted: MCT1-expressing A-549 cells, 50 μM 3-BP, 72 h; read-out: MCT1 transport inhibition IC50 ± SEM. Here is the method:
The inhibitory activity of indole derivatives against MCT1 was determined by applying a functional 3-bromopyruvate (3-BP) cell viability assay, as described in the literature[20],[39] with minor modifications. In short, MCT1-expressing A-549 cells[14],[15] were exposed to the MCT1 substrate 3-BP, which becomes influxed by MCT1. 3-BP is toxic, leading to decreased cell viability. Functional inhibition of MCT1 results in reduced intracellular 3-BP levels and, thus, enhanced cell viability compared to no inhibition. […] Table 1 provides the half-maximal inhibition concentration (IC50) values of compounds 17–32.
A functional 3-BP cytotoxicity assay was conducted as described in the literature[20],[39] with minor modifications. Dilution series of compounds 17–32 between 1 nM and 1 μM were prepared in DPBS (Cell Clone, Genetix Biotech Asia, New Delhi India), and 10 μL of each concentration was pipetted into a colorless flat-bottom 96-well microplate (SPL Life Sciences, Gyeonggi-do, Republic of Korea). One hundred and eighty microliters of a cell suspension (5000 cells/well) of A-549 cells was added, and subsequently, 10 μL of 3-BP was added at a concentration of 1 mM (final concentration per well: 50 μM). The plate was kept for 72 h at 37 °C under a 5% CO2-humidified atmosphere. Cell viability was determined as described before[43] by adding 20 μL of a 5 mg/mL solution of MTT to each well and further incubation for 1 h. Eventually, the supernatant was removed and 100 μL of DMSO was added to each well. The absorbance was spectrophotometrically determined at 570 nm using a SpectraMax iD3 multi-mode microplate reader (Molecular Devices, San Jose, CA) with a background correction (690 nm). The determined absorbance values were correlated to the logarithmic concentrations of compounds 17–32, and IC50 values were calculated applying nonlinear regression using GraphPad Prism (version 8.4.0., San Diego, CA).

In series [2] the test system is A-549 cancer cells. Description: MTT-based cell viability assay, A-549. To be noted: Homo sapiens, A549, 72 h, read-out: A-549 cancer cell toxicity GI50 ± SEM. The text has this:
(§1) MCT1-expressing cells have an extraordinary energy demand and rely on pyruvate metabolism, through either lactate conversion or pyruvate consumption. Inhibition of MCT1 blocks lactate and pyruvate influx into cancer cells, which prevents their processing in the TCA cycle. Over time, the viability of cells exposed to an MCT1 inhibitor is impaired due to pyruvate deprivation, which is compensated by upregulating glucose metabolism—leading to an overconsumption of glucose. To confirm the antiproliferative nature of the indole derivatives, we investigated the compounds toward the MCT1-expressing cell lines A-549[14],[15] and MCF-7.[16] Cancer cell viability was assessed via a 3-(4,5-dimethylthiazol-2-yl)-2,5-diphenyltetrazolium bromide (MTT) assay, as reported earlier.[43]
(§2) To determine the growth inhibitory potential of compounds 17–32, […] of each compound either at concentrations between 1 and 100 μM (A-549 or MCF-7) or at 10 and 50 μM (NIH/3T3) was pipetted into colorless flat-bottom 96-well microplates. Thereafter, 180 μL of a cell suspension (5000 cells/well) of either A-549, MCF-7, or NIH/3T3 cells was added and subsequently kept for 72 h at 37 °C under a 5% CO2-humidified atmosphere. The cell viability as well as the GI50 values were determined as described above.[43]

Series [3] concerns MCF-7 cancer cells. Description: MTT-based cell viability assay, MCF-7. The following applies: Homo sapiens, MCF7, 72 h, read-out: MCF-7 cancer cell toxicity GI50 ± SEM.
From the text: as §1, §2

Series [4] addresses ABCB1 (Homo sapiens, UniProt P08183). Description: calcein AM assay, ABCB1-expressing A2780/ADR cells. The following applies: screening at 10 μM, inhibitor if 20% (+SEM) reached.
From the text: (§3) To provide a detailed picture of the pharmacological profile of the indole derivatives, we investigated their modulatory nature on the most prominent ABC transporters ABCB1 (P-glycoprotein, P-gp), ABCC1, (multidrug resistance-associated protein 1, MRP1), and ABCG2 (breast cancer resistance protein, BCRP). Here, we conducted calcein AM (ABCB1),[2],[52]−[59] daunorubicin (ABCC1),[52],[58]−[60] and pheophorbide A (ABCG2)[2],[52]−[60] assays using ABCB1-expressing A2780/ADR, ABCC1-expressing H69AR, and ABCG2-expressing MDCK II BCRP cells, respectively.
(§4) The calcein AM (ABCB1),[2],[52]−[59] daunorubicin (ABCB1[52],[60] and ABCC1[52],[58]−[60]), and pheophorbide A (ABCG2)[2],[52]−[60] assays were conducted as reported earlier. […] The data was processed using GraphPad Prism version 8.4.0, and IC50 values were determined, applying three- or four-parameter logistic equations, whatever was statistically preferred.
In series [5] the target is ABCC1 (Homo sapiens, UniProt P33527). Description: daunorubicin assay, ABCC1-expressing H69AR cells. The following applies: screening at 10 μM, inhibitor if 20% (+SEM) reached.
Sequence of ABCC1 (P33527 whole entry): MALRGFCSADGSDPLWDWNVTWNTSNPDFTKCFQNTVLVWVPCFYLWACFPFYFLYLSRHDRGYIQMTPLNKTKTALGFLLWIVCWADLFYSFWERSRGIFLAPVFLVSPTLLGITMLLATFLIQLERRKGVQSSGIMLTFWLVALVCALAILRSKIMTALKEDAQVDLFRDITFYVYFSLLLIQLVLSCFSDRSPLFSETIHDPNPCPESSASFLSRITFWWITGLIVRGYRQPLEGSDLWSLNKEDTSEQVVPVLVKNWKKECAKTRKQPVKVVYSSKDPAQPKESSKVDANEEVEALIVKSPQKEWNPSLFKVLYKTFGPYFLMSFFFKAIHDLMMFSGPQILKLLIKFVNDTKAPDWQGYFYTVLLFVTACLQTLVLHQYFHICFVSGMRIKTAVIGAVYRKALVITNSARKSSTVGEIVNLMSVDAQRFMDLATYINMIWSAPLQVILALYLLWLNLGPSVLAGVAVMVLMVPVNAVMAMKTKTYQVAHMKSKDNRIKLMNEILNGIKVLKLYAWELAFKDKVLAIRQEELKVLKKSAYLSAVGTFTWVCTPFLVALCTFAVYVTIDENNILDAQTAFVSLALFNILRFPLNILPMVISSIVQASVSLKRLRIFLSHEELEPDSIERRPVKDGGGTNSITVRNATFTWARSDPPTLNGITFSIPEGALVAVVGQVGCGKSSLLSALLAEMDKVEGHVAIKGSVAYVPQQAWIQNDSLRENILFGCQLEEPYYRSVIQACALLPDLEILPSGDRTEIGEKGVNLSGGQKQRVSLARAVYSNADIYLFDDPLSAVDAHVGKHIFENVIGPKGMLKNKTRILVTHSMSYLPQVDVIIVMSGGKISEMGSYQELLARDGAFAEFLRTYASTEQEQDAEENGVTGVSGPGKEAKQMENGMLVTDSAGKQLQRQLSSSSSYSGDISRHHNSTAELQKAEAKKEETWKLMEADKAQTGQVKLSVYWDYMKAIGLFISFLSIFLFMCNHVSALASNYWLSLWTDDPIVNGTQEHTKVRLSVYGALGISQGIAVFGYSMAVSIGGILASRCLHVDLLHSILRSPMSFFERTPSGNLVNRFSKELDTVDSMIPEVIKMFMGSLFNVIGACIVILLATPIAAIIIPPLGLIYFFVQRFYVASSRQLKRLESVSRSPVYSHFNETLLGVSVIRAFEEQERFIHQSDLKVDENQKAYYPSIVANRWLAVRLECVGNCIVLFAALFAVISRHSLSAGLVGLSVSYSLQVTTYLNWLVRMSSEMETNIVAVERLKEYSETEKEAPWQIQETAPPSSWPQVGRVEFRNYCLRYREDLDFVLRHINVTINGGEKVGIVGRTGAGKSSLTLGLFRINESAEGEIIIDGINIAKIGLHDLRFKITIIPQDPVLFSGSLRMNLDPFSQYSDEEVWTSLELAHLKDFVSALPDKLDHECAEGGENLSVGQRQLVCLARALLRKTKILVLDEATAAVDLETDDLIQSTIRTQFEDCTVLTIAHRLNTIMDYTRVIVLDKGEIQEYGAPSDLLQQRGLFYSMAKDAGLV
From the text: as §3, §4

Sequence of ABCB1 (P08183 whole entry): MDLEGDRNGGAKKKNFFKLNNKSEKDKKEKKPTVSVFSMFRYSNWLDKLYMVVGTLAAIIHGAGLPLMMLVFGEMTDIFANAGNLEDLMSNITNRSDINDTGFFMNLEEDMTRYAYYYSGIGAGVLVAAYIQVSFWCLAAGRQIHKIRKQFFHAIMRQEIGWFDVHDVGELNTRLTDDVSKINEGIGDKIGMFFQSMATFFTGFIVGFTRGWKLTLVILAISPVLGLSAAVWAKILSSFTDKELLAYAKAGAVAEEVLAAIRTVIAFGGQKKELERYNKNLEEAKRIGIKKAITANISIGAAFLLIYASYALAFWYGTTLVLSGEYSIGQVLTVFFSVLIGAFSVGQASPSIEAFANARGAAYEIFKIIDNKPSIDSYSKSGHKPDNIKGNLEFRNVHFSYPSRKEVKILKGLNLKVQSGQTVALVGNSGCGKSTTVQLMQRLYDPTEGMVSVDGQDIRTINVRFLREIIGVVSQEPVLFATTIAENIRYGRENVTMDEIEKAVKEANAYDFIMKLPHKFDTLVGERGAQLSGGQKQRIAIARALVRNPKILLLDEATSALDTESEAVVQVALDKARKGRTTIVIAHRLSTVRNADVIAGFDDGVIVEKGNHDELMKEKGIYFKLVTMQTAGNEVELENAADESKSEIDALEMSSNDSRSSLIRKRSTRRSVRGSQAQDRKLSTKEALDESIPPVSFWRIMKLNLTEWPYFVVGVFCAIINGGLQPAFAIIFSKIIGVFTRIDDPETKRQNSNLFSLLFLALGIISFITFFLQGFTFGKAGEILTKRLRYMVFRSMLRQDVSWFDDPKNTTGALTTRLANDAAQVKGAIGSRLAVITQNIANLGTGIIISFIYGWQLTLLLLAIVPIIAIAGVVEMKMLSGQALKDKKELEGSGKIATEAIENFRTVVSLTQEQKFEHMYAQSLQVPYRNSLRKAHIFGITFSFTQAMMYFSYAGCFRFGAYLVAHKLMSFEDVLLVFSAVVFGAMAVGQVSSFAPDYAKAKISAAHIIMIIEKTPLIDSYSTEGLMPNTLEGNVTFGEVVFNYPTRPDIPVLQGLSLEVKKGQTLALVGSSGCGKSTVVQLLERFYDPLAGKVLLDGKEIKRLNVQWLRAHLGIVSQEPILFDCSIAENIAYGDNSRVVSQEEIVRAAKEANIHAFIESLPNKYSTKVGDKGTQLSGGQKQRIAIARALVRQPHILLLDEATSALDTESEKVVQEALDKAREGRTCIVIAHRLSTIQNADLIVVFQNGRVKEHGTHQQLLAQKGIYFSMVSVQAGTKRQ

The IC50 is the concentration that inhibits the measured activity by half. Usually GI50 stands for the concentration at which growth is held to half of that of the control. Consider `COC(=O)/C(C#N)=C/c1cn(CC(=O)Nc2cccc3ccccc23)c2ccccc12` [Compound 18, Methyl-2-cyano-3-(1-(2-(naphthalen-1-ylamino)-2-oxoethyl)-1H-indol-3-yl) Acrylate], for which the IC50 in series [1] amounted to 193 ± 10 nM. Also, the GI50 is 21.5 ± 0.4 µM in series [2] and 15.4 ± 0.5 µM in series [3]. For the same compound, the ABCB1 inhibition result in series [4] is “X (Compounds were considered as inhibitors if they reached 20% (+SEM) inhibition compared to the reference inhibitors 33–35; X = fulfilled)”.

In the case of `COC(=O)/C(C#N)=C/c1cn(CC(=O)Nc2ccccn2)c2ccccc12` [Compound 29, Methyl-2-cyano-3-(1-(2-oxo-2-(pyridin-2-ylamino)ethyl)-1H-indol-3-yl) Acrylate], the IC50 in series [1] came to 198 ± 4 nM. In addition, the GI50 came out at 17.1 ± 0.4 µM in series [2] and 4.32 ± 0.14 µM in series [3].

Turning to `COC(=O)/C(C#N)=C/c1cn(CC(=O)Nc2ccc(Br)cc2)c2ccccc12` [Compound 28, Methyl-3-(1-(2-((4-bromophenyl)amino)-2-oxoethyl)-1H-indol-3-yl)-2-cyanoacrylate], the IC50 in series [1] was found to be 287 ± 47 nM. For the same compound, the GI50 in series [2] was 19.2 ± 0.2 µM; in series [3] it was 9.99 ± 0.46 µM. Moreover, in series [4], the ABCB1 inhibition entry is “X (Compounds were considered as inhibitors if they reached 20% (+SEM) inhibition compared to the reference inhibitors 33–35; X = fulfilled)”.

For the compound `COC(=O)/C(C#N)=C/c1cn(CC(=O)Nc2c(Cl)cccc2Cl)c2ccccc12` [Compound 27, Methyl-2-cyano-3-(1-(2-((2,6-dichlorophenyl)amino)-2-oxoethyl)-1H-indol-3-yl) Acrylate], the IC50 in series [1] turned out to be 109 ± 2 nM. The values for the GI50 in series [2] and in series [3] were 25 ± 0.5 µM and 17.3 ± 0.6 µM, respectively. Moreover, in series [5], the ABCC1 inhibition result was “X (Compounds were considered as inhibitors if they reached 20% (+SEM) inhibition compared to the reference inhibitors 33–35; X = fulfilled)”. Moreover, the ABCB1 inhibition entry in series [4] is on record as “X (Compounds were considered as inhibitors if they reached 20% (+SEM) inhibition compared to the reference inhibitors 33–35; X = fulfilled)”.

In the case of `COC(=O)/C(C#N)=C/c1cn(CC(=O)Nc2ccccc2C)c2ccccc12` [Compound 20, Methyl-2-cyano-3-(1-(2-oxo-2-(o-tolylamino)ethyl)-1H-indol-3-yl) Acrylate], the IC50 in series [1] amounted to 105 ± 6 nM. For the same compound, the values for the 50% growth inhibitory concentration (GI50) in series [2] and in series [3] were 28.3 ± 0.1 µM and 15.3 µM, respectively. Further, in series [5], the ABCC1 inhibition entry is on record as “X (Compounds were considered as inhibitors if they reached 20% (+SEM) inhibition compared to the reference inhibitors 33–35; X = fulfilled)”. The ABCB1 inhibition result in series [4] is recorded as “X (Compounds were considered as inhibitors if they reached 20% (+SEM) inhibition compared to the reference inhibitors 33–35; X = fulfilled)”.

For the compound `COC(=O)/C(C#N)=C/c1cn(CC(=O)Nc2ccc3ccccc3c2)c2ccccc12` [Compound 19, Methyl-2-cyano-3-(1-(2-(naphthalen-2-ylamino)-2-oxoethyl)-1H-indol-3-yl) Acrylate], in series [1], the 50% inhibitory concentration (IC50) worked out at 109 ± 3 nM. For the same compound, the concentration for 50% growth inhibition (GI50) in series [2] worked out at 26.9 ± 0.3 µM; in series [3] it was 15.5 ± 1.3 µM. Further, the ABCB1 inhibition entry in series [4] is on record as “X (Compounds were considered as inhibitors if they reached 20% (+SEM) inhibition compared to the reference inhibitors 33–35; X = fulfilled)”.

Regarding `COC(=O)/C(C#N)=C/c1cn(CC(=O)Nc2ccc(Cl)cc2)c2ccccc12` [Compound 26, Methyl-3-(1-(2-((4-chlorophenyl)amino)-2-oxoethyl)-1H-indol-3-yl)-2-cyanoacrylate], the IC50 in series [1] amounted to 196 ± 5 nM. The GI50 in series [2] was found to be 21 ± 0.4 µM; in series [3], 10.7 ± 0.4 µM. For the same compound, the ABCC1 inhibition result in series [5] is on record as “X (Compounds were considered as inhibitors if they reached 20% (+SEM) inhibition compared to the reference inhibitors 33–35; X = fulfilled)”. Further, the ABCB1 inhibition result in series [4] is “X (Compounds were considered as inhibitors if they reached 20% (+SEM) inhibition compared to the reference inhibitors 33–35; X = fulfilled)”.

For the compound `COC(=O)/C(C#N)=C/c1cn(CC(=O)Nc2cccnc2)c2ccccc12` [Compound 32, Methyl-2-cyano-3-(1-(2-oxo-2-(pyridin-3-ylamino)ethyl)-1H-indol-3-yl) Acrylate], the IC50 in series [1] worked out at 109 ± 3 nM. Besides, the results for the concentration for 50% growth inhibition (GI50) in series [2] and in series [3] were 19.2 ± 0.4 µM and 11.1 ± 0.2 µM, respectively. Besides, in series [5], the ABCC1 inhibition result is on record as “X (Compounds were considered as inhibitors if they reached 20% (+SEM) inhibition compared to the reference inhibitors 33–35; X = fulfilled)”. Moreover, the ABCB1 inhibition result in series [4] was “X (Compounds were considered as inhibitors if they reached 20% (+SEM) inhibition compared to the reference inhibitors 33–35; X = fulfilled)”.

On to `COC(=O)/C(C#N)=C/c1cn(CC(=O)Nc2ccc(C)cc2)c2ccccc12` [Compound 21, Methyl-2-cyano-3-(1-(2-oxo-2-(p-tolylamino)ethyl)-1H-indol-3-yl) Acrylate], for which, in series [1], the 50% inhibitory concentration (IC50) turned out to be 112 ± 10 nM. In addition, the results for the 50% growth inhibitory concentration (GI50) in series [2] and in series [3] were 14 ± 0.5 µM and 13.9 ± 0.1 µM, respectively. In addition, in series [5], the ABCC1 inhibition result was “X (Compounds were considered as inhibitors if they reached 20% (+SEM) inhibition compared to the reference inhibitors 33–35; X = fulfilled)”. Moreover, the ABCB1 inhibition result in series [4] was “X (Compounds were considered as inhibitors if they reached 20% (+SEM) inhibition compared to the reference inhibitors 33–35; X = fulfilled)”.

With `COC(=O)/C(C#N)=C/c1cn(CC(=O)Nc2ccc(F)cc2)c2ccccc12` [Compound 25, Methyl-2-cyano-3-(1-(2-((4-fluorophenyl)amino)-2-oxoethyl)-1H-indol-3-yl) Acrylate], the 50% inhibitory concentration (IC50) in series [1] came to 793 ± 138 nM. The GI50 in series [2] was found to be 22 ± 0.6 µM; in series [3], 15.1 ± 0.3 µM. Moreover, in series [5], the ABCC1 inhibition entry is listed as “X (Compounds were considered as inhibitors if they reached 20% (+SEM) inhibition compared to the reference inhibitors 33–35; X = fulfilled)”. Besides, the ABCB1 inhibition result in series [4] is reported as “X (Compounds were considered as inhibitors if they reached 20% (+SEM) inhibition compared to the reference inhibitors 33–35; X = fulfilled)”.

Turning to `COC(=O)/C(C#N)=C/c1cn(CC(=O)Nc2ccccc2)c2ccccc12` [Compound 17, Methyl-2-cyano-3-(1-(2-oxo-2-(phenylamino)ethyl)-1H-indol-3-yl) Acrylate], the IC50 in series [1] was found to be 314 ± 47 nM. Also, the GI50 in series [2] turned out to be 29.2 ± 0.2 µM; in series [3], 15.4 ± 0.3 µM. Besides, the ABCB1 inhibition result in series [4] is on record as “X (Compounds were considered as inhibitors if they reached 20% (+SEM) inhibition compared to the reference inhibitors 33–35; X = fulfilled)”.
